# Legend:
# ROCK II = target: T1, ROCK II (Homo sapiens, UniProt O75116); test: ROCK II kinase inhibition, Method 1 Proqinase setup (33P radioisotopic protein kinase assay); type: biochemical; details: 33P radioisotopic assay, 1 μM ATP, read-out: IC50 Meth. 1
# T1 construct: purchased Proqinase
# Procedure: A ^33P radioisotopic protein kinase assay is used to determine the IC50 for inhibiting ROCK II. A final 50 μl reaction cocktail, containing 60 mM HEPES-NaOH (pH 7.5), 3 mM MgCl2, 3 mM MnCl2, 3 μM Na-orthovanadate, 1.2 mM DTT, 1 μM ATP, 50 μg/ml PEG20.000, 1% (v/v) DMSO, 1 μM ATP (approx. 3×10^5 cpm ^33P-γ-ATP), the substrate (Substrate: S6 peptide—2000 ng/well) and recombinant protein kinase (0.5 nM-2.5 ng/well) is mixed on a shaker and incubated at 30° C. for 80 minutes. The reaction is stopped by the addition of 50 μl of a 2% solution of H3PO4 and mixed on a shaker. After washing twice with 200 μl of a 0.9% solution of NaCl, the dry plate is counted.
# ROCKα/ROCKII = target: T2, ROCKα/ROCKII (Homo sapiens, UniProt O75116); test: ROCK inhibition, Method 2 fluorescence polarization (FP) assay, ROCK IMAP Kit; type: biochemical; details: 10 μM ATP, read-out: IC50 Meth. 2
# T2 construct: purchased Upstate Biotechnology 14-451
# T2 sequence (O75116 whole entry): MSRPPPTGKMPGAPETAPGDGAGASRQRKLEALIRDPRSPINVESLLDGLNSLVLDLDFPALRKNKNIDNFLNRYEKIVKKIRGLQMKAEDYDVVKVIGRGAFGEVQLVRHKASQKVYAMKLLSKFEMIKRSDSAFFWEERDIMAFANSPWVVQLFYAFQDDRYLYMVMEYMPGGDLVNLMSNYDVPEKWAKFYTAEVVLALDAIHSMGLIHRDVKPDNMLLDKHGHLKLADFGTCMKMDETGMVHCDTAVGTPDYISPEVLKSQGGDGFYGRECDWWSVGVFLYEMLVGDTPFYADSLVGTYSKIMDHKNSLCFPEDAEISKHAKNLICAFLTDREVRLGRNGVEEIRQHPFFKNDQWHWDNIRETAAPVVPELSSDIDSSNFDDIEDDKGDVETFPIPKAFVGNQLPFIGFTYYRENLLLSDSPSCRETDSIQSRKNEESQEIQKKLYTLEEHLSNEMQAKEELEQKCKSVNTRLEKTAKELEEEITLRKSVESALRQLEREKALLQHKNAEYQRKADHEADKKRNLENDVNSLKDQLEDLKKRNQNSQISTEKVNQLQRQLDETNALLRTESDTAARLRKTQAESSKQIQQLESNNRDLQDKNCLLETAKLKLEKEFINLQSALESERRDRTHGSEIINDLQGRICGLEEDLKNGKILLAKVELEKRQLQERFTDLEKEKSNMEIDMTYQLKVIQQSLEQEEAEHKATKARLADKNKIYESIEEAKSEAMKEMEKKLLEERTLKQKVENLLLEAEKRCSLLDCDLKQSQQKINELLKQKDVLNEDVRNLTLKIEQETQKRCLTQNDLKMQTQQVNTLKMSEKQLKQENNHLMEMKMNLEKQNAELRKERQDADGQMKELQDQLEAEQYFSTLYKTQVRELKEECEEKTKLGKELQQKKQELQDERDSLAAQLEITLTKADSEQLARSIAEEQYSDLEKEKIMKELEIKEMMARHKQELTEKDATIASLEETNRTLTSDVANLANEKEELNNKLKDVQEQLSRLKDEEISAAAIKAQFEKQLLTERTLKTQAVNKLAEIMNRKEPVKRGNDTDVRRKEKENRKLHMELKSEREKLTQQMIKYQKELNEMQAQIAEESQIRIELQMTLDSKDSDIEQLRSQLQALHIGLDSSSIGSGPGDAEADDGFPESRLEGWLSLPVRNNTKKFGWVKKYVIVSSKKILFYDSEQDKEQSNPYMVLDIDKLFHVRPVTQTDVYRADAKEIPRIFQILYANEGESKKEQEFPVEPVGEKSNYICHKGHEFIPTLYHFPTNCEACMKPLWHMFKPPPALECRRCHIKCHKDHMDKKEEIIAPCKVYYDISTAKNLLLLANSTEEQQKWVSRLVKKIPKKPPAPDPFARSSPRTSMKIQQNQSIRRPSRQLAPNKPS
# Procedure: The inhibition assays were performed with a fluorescence polarization (FP) assay using the commercially available ROCK IMAP Kit from Molecular Devices (Product ID. No. R8093), essentially in accordance with the protocol supplied by the manufacturer. […] The enzyme mix ROCKα/ROCKII was obtained from Upstate Biotechnology (Product ID No 14-451).
# In summary, all compounds were screened in the wells of a 384 well plate for enzymatic inhibition with concentrations varying from 100 μM to 0.3 nM using a stepwise 3 (or 2)-fold dilution.
# To perform the assay, 1 μl of a solution of the compound to be tested in DMSO (at each concentration) was added to 2 μl of a solution of the enzyme in 10 mM Tris-HCl, 10 mM MgCl2, 0.1% BSA, 0.05% NaN3, pH 7,2. The final concentration of the enzyme was 2.6 nM.
# After incubating for 30 minutes at RT, 2 μl of a mixture of ATP and the protein substrate in 10 mM Tris-HCl, 10 mM MgCl2, 0.1% BSA, 0.05% NaN3, pH 7.2 was added. The final concentration of the ATP was 10 μM and final concentration of protein substrate was 0.2 μM.
# After incubating for 60 minutes at RT, 12 μl of the IMAP Binding Solution (mix of the IMAP Binding Buffer A (1×) and the IMAP Binding Reagent (from the ROCK IMAP kit)) was added.
# The mixture thus obtained (total volume: 17 μl) was incubated for 60 minutes at RT, upon which the fluorescence polarization was measured using an automated plate reader (Perkin Elmer, Model Envision 2100-0010 HTS) with FP filters: excitation filter FITC FP 480 and emission filters FITC FP P-pol 535 and FITC FP S-pol 535 (Perkin-Elmer). The results were fitted to a curve using the XL-Fit algorithm and IC50 values were calculated for each fitted curve, again using the XL-Fit algorithm.
# T1 sequence (O75116 whole entry): as above
molecule,measurement,setting,value
2′-Aminomethyl-5′- (pyridin-4-ylcarbamoyl)- biphenyl-3-carboxylic acid 2-methoxy-propyl ester [Compound 42],IC50,ROCK II,100 to 1000 nM
"COC(=O)c1cccc(-c2cc(C(=O)Nc3ccncc3)ccc2CN)c1 [Compound 1, 2′-Aminomethyl-5′-(pyridin-4-ylcarbamoyl)-biphenyl-3-carboxylic acid methyl ester]",IC50,ROCK II,< 100 nM
"COC(=O)c1ccc(-c2cc(C(=O)Nc3ccncc3)ccc2CN)cc1 [Compound 2, 2′-Aminomethyl-5′-(pyridin-4-ylcarbamoyl)-biphenyl-4-carboxylic acid methyl ester]",IC50,ROCK II,1000 to 10000 nM
"CCOC(=O)c1cccc(-c2cc(C(=O)Nc3ccncc3)ccc2CN)c1 [Compound 7, 2′-Aminomethyl-5′-(pyridin-4-ylcarbamoyl)-biphenyl-3-carboxylic acid ethyl ester]",IC50,ROCK II,100 to 1000 nM
"CCCOC(=O)c1cccc(-c2cc(C(=O)Nc3ccncc3)ccc2CN)c1 [Compound 10, 2′-Aminomethyl-5′-(pyridin-4-ylcarbamoyl)-biphenyl-3-carboxylic acid propyl ester]",IC50,ROCK II,100 to 1000 nM
"CCCCOC(=O)c1cccc(-c2cc(C(=O)Nc3ccncc3)ccc2CN)c1 [Compound 14, 2′-Aminomethyl-5′-(pyridin-4-ylcarbamoyl)-biphenyl-3-carboxylic acid butyl ester]",IC50,ROCK II,100 to 1000 nM
"CCCCCOC(=O)c1cccc(-c2cc(C(=O)Nc3ccncc3)ccc2CN)c1 [Compound 15, 2′-Aminomethyl-5′-(pyridin-4-ylcarbamoyl)-biphenyl-3-carboxylic acid pentyl ester]",IC50,ROCK II,100 to 1000 nM
"CCCCCCOC(=O)c1cccc(-c2cc(C(=O)Nc3ccncc3)ccc2CN)c1 [Compound 17, 2′-Aminomethyl-5′-(pyridin-4-ylcarbamoyl)-biphenyl-3-carboxylic acid hexyl ester]",IC50,ROCK II,100 to 1000 nM
"CC(C)OC(=O)c1cccc(-c2cc(C(=O)Nc3ccncc3)ccc2CN)c1 [Compound 26, 2′-Aminomethyl-5′-(pyridin-4-ylcarbamoyl)-biphenyl-3-carboxylic acid isopropyl ester]",IC50,ROCK II,100 to 1000 nM
"NCc1ccc(C(=O)Nc2ccncc2)cc1-c1cccc(C(=O)OC2CCC2)c1 [Compound 31, 2′-Aminomethyl-5′-(pyridin-4-ylcarbamoyl)-biphenyl-3-carboxylic acid cyclobutyl ester]",IC50,ROCK II,100 to 1000 nM
"NCc1ccc(C(=O)Nc2ccncc2)cc1-c1cccc(C(=O)OC2CCCC2)c1 [Compound 32, 2′-Aminomethyl-5′-(pyridin-4-ylcarbamoyl)-biphenyl-3-carboxylic acid cyclopentyl ester]",IC50,ROCK II,100 to 1000 nM
"NCc1ccc(C(=O)Nc2ccncc2)cc1-c1cccc(C(=O)OC2CCCCC2)c1 [Compound 35, 2′-Aminomethyl-5′-(pyridin-4-ylcarbamoyl)-biphenyl-3-carboxylic acid cyclohexyl ester]",IC50,ROCK II,100 to 1000 nM
"NCc1ccc(C(=O)Nc2ccncc2)cc1-c1cccc(C(=O)OCC2CCCC2)c1 [Compound 38, 2′-Aminomethyl-5′-(pyridin-4-ylcarbamoyl)-biphenyl-3-carboxylic acid cyclopentylmethyl ester]",IC50,ROCK II,100 to 1000 nM
"NCc1ccc(C(=O)Nc2ccncc2)cc1-c1cccc(C(=O)OCC2CCCCC2)c1 [Compound 39, 2′-Aminomethyl-5′-(pyridin-4-ylcarbamoyl)-biphenyl-3-carboxylic acid cyclohexylmethyl ester]",IC50,ROCK II,100 to 1000 nM
"COCCOC(=O)c1cccc(-c2cc(C(=O)Nc3ccncc3)ccc2CN)c1 [Compound 41, 2′-Aminomethyl-5′-(pyridin-4-ylcarbamoyl)-biphenyl-3-carboxylic acid 2-methoxy-ethyl ester]",IC50,ROCK II,100 to 1000 nM
"NCc1ccc(C(=O)Nc2ccncc2)cc1-c1cccc(C(=O)OC2CCOCC2)c1 [Compound 43, 2′-Aminomethyl-5′-(pyridin-4-ylcarbamoyl)-biphenyl-3-carboxylic acid tetrahydro-pyran-4-yl ester]",IC50,ROCK II,100 to 1000 nM
"CN1CCC(OC(=O)c2cccc(-c3cc(C(=O)Nc4ccncc4)ccc3CN)c2)CC1 [Compound 48, 2′-Aminomethyl-5′-(pyridin-4-ylcarbamoyl)-biphenyl-3-carboxylic acid 1-methyl-piperidin-4-yl ester]",IC50,ROCK II,100 to 1000 nM
"CC(N)c1ccc(C(=O)Nc2ccncc2)cc1-c1cccc(C(=O)OCCN2C(=O)c3ccccc3C2=O)c1 (centres unmarked) [Compound 95, 2′-(1-Amino-ethyl)-5′-(pyridin-4-ylcarbamoyl)-biphenyl-3-carboxylic acid 2-(1,3-dioxo-1,3-dihydro-isoindol-2-yl)-ethyl ester]",IC50,ROCKα/ROCKII,100 to 1000 nM
"CC(N)c1ccc(C(=O)Nc2ccncc2)cc1-c1cccc(C(=O)OCC(=O)c2ccc(Br)cc2)c1 (centres unmarked) [Compound 96, 2′-(1-Amino-ethyl)-5′-(pyridin-4-ylcarbamoyl)-biphenyl-3-carboxylic acid 2-(4-bromo-phenyl)-2-oxo-ethyl ester]",IC50,ROCKα/ROCKII,< 100 nM
"CC(N)c1ccc(C(=O)Nc2ccncc2)cc1-c1cccc(C(=O)SC(C)(C)C)c1 (centres unmarked) [Compound 101, 2′-(1-Amino-ethyl)-5′-(pyridin-4-ylcarbamoyl)-biphenyl-3-carbothioic acid S-tert-butyl ester]",IC50,ROCKα/ROCKII,< 100 nM
"CCOC(=O)CCNC(=O)c1cccc(-c2cc(C(=O)Nc3ccncc3)ccc2C(C)N)c1 (centres unmarked) [Compound 105, 3-{[2′-(1-Amino-ethyl)-5′-(pyridin-4-ylcarbamoyl)-biphenyl-3-carbonyl]-amino}-propionic acid ethyl ester]",IC50,ROCKα/ROCKII,< 100 nM
"CC(N)c1ccc(C(=O)Nc2ccncc2)cc1-c1cccc(C(=O)NC2CCSC2=O)c1 (centres unmarked) [Compound 112, 6-(1-Amino-ethyl)-biphenyl-3,3′-dicarboxylic acid 3′-[(2-oxo-tetrahydro-thiophen-3-yl)-amide] 3-pyridin-4-ylamide]",IC50,ROCKα/ROCKII,< 100 nM
"CC(N)c1ccc(C(=O)Nc2ccncc2)cc1-c1cccc(OCCSC2CCOC2=O)c1 (centres unmarked) [Compound 130, 6-(1-Amino-ethyl)-3′-[2-(2-oxo-tetrahydro-furan-3-ylsulfanyl)-ethoxy]-biphenyl-3-carboxylylic acid pyridin-4-ylamide]",IC50,ROCKα/ROCKII,< 100 nM
"CCCOC(=O)COc1cccc(-c2cc(C(=O)Nc3ccncc3F)ccc2C(C)N)c1 (centres unmarked) [Compound 141, [2′-(1-Amino-ethyl)-5′-(3-fluoro-pyridin-4-ylcarbamoyl)-biphenyl-3-yloxy]-acetic acid propyl ester]",IC50,ROCKα/ROCKII,100 to 1000 nM
"CC(N)c1ccc(C(=O)Nc2ccncc2F)cc1-c1cccc(OCC(=O)Oc2ccccc2)c1 (centres unmarked) [Compound 142, [2′-(1-Amino-ethyl)-5′-(3-fluoro-pyridin-4-ylcarbamoyl)-biphenyl-3-yloxy]-acetic acid phenyl ester]",IC50,ROCKα/ROCKII,100 to 1000 nM
"CCOC(=O)CSCC(=O)Nc1cccc(-c2cc(C(=O)Nc3ccncc3)ccc2C(C)N)c1 (centres unmarked) [Compound 154, {[2′-(1-Aminoethyl)-5′-(pyridin-4-ylcarbamoyl)-biphenyl-3-ylcarbamoyl]-methylsulfanyl}-acetic acid ethyl ester]",IC50,ROCKα/ROCKII,< 100 nM
"CC(N)c1ccc(C(=O)Nc2ccncc2)cc1-c1cccc(NC(=O)CC2CC(=O)Oc3ccccc32)c1 (centres unmarked) [Compound 155, 6-(1-Amino-ethyl)-3′-[2-(2-oxo-chroman-4-yl)-acetylamino]-biphenyl-3-carboxylic acid pyridin-4-ylamide]",IC50,ROCKα/ROCKII,< 100 nM
"CC(N)c1ccc(C(=O)Nc2ccncc2)cc1-c1cccc2[nH]c(C(=O)Oc3ccccc3)cc12 (centres unmarked) [Compound 173, 4-[2-(1-Amino-ethyl)-5-(pyridin-4-ylcarbamoyl)-phenyl]-1H-indole-2-carboxylic acid phenyl ester]",IC50,ROCKα/ROCKII,100 to 1000 nM
CCCOC(=O)c1cccc(-c2cc(C(=O)Nc3ccncc3F)ccc2CN)c1 [Compound 174],IC50,ROCKα/ROCKII,100 to 1000 nM
NCc1ccc(C(=O)Nc2ccncc2F)cc1-c1cccc(C(=O)Oc2ccccc2)c1 [Compound 175],IC50,ROCKα/ROCKII,< 100 nM
CC(N)c1ccc(C(=O)Nc2ccncc2)cc1-c1cccc(C(=O)Oc2ccc3c(c2)OC(=O)CC3)c1 (centres unmarked) [Compound 176],IC50,ROCKα/ROCKII,< 100 nM
CC(N)c1ccc(C(=O)Nc2ccncc2F)cc1-c1cccc(OCCSC2CCOC2=O)c1 (centres unmarked) [Compound 177],IC50,ROCKα/ROCKII,100 to 1000 nM
